# Assay results reported in patent US20200276181A1, “THIENOISOQUINOLINES AND THEIR DERIVATIVES FOR TARGETING TUBULIN, CH-TOG, AURORA A KINASE, TPX2, CDK5RAP2 AND/OR ASPM” (VALORBEC, SEC, priority 2017, published 2020).
# Assays:
# [1] = system: HCT116 cells; test: Mitotic arrest after one population doubling time; type: cell-based; details: HCT116, most responsive
# Excerpt: (§1) For each condition, 20,000 cells were counted per replicate (N=3). Line graphs (right) were made to better illustrate the relative changes in the cell cycle phases for the different treatments. Bars show standard deviation. The asterisks indicate the first statistically significant change in the G0/G1 and G2/M populations determined by a two-way ANOVA with a post-hoc Tukey's multiple comparisons test using 95% confidence intervals. FIG. 2B) is a line graph showing the percentage of HCT116 (p53−/−) cells, A549 cells, HeLa cells and H1299 cells in mitosis after treatment with various concentrations of C75 for one population doubling time. All of the cell lines show an increase in the proportion of mitotic cells after treatment with 200 nM C75. The bars indicate standard deviation. […]
# (§2) C75 was also tested for efficacy in different cancer cell lines. […] To further assess the role of C75 in disrupting spindles, HeLa cells were treated with 300 nM C75 for 4 hours and the spindle phenotypes were analyzed in more detail (FIG. 2E). […] To assess the affect of C75 on centrosomes, HeLa cells were treated with C75 or nocodazole (a drug that causes microtubule depolymerization as a control) for a short period of time (5 minutes), then the drugs were removed and the cells were analyzed for spindle phenotypes (schematic in FIG. 2G). […]
# [2] = system: A549 cells; test: IC50 of derivatives (Table 5); type: cell-based, human; details: Homo sapiens; Table 5; cell line only named in b213 (A549)
# [3] = system: H1299 (non-small cell lung cancer) cells; test: Mitotic arrest after one population doubling time; type: cell-based, human; details: H1299, least responsive
# Excerpt: as §1, §2
# [4] = molecular target: Purified free alpha and beta tubulin dimers (Homo sapiens, UniProt P07437+Q71U36); test: Microtubule polymerization in vitro; type: biochemical; details: 35 minutes at 37° C., Mg2+ and GTP, 20% glycerol buffer
# Description: FIG. 10 is a graph showing microtubule polymerization in vitro in the presence of 200 nM C75 or DMSO (control). Bars show SEM. Microtubules fail to polymerize in the presence of C75, but not in control samples, showing that tubulin could be a target of C75 in vitro.
# Purified free alpha and beta tubulin dimers were added at a concentration of […] to a 20% glycerol buffer and allowed to polymerize in the presence of Mg^2+ and GTP for 35 minutes at 37° C. While DMSO had no effect on microtubule polymerization, 200 nM of C75 prevented polymerization. […] This supports that C75 binds tubulin at a different site compared to other microtubule-depolymerizing drugs.
# [5] = system: S2 cells; test: Spindle phenotypes in live S2 cells expressing GFP-tagged tubulin; type: cell-based, Drosophila; details: 300 nM
# Excerpt: This will permit using Drosophila proteins for binding studies in vitro, and genetics-based tools for further study of the target.
# [6] = system: A549 cells; test: Viability IC50 of C75 in combination with subthreshold colchicine; type: cell-based, human; details: + 9 nM colchicine
# [7] = system: MCF7, BT549, A549, HCT116, HeLa cells; test: Viability in cancer vs non-cancer cell lines, summary of Table 3; type: cell-based, human
# Description: To date, 30 variants with different structural modifications have been made. […] In particular, it is shown that C75 causes death in multiple cancer cells with IC50 values in the 100-400 nM range, including breast cancers (MCF7, BT549), lung cancer (A549), colorectal cancer (HCT116) in addition to HeLa cells (cervical cancer).
smiles,measurement,setting,value
COc1ccc(S(=O)(=O)N2Cc3ccccc3-c3sc(Br)cc32)cc1 [Compound C75],concentration at which mitotic cells increase,[1],100 nM
same,IC50,[2],431 nM
same,concentration at which mitotic cells show a small increase,[3],200 nM
same,concentration that prevented microtubule polymerization,[4],200 nM
same,spindle phenotype in Drosophila S2 cells,[5],spindle phenotypes similar to what was observed in mammalian cells
same,lowering of the IC50 of C75 by subthreshold colchicine,[6],~2 fold
same,efficacy (effect on viability) in cancer cells vs. non-cancer cells,[7],higher efficacy
same,IC50,"[7]; Homo sapiens, MCF7, BT549, A549, HCT116, HeLa, read-out: IC50 values in multiple cancer cells",100 to 400 nM
